Source: US12351590B2, “Pyrrolopyrimidine compound and use thereof” (GUANGZHOU JOYO PHARMATECH CO., LTD., priority 2019, dated 2025)

Key:
[1] = target: JAK3(h) (Homo sapiens (Human), UniProt P52333); assay: In vitro activity assay of JAK3 kinase (radiometric [γ-33P]-ATP); type: biochemical; details: recombinant human JAK3
Experimental: (§1) Recombinant human JAK1, JAK2, JAK3 and TYK2 […], and main instruments and reagents were provided by Eurofins, UK
(§2) JAK2, JAK3 and TYK2 dilutions: 20 mM 3-(N-morpholino)propanesulfonic acid (MOPS), 1 mM EDTA, 0.01% Brij-35.5% glycerol, 0.1% β-mercaptoethanol, 1 mg/mL BSA; JAK1 dilution: 20 mM TRIS, 0.2 mM EDTA, 0.1% β-mercaptoethanol, 0.01% Brij-35.5% glycerol. All compounds were prepared in 100% DMSO and brought to 50 fold the final assay concentration. The test compounds were serially 3-fold diluted to 9 concentrations from 10 μM to 0.001 μM with DMSO content in the assay reaction being 2%. Working stock solutions of the compounds were added to the assay wells as the first component of the reaction, and then the remaining components were added according to the assay protocol detailed below.
(§3) JAK3(h) was incubated with 8 mM MOPS pH 7.0, 0.2 mM EDTA, 500 μM GGEEEEYFELVKKKK, 10 mM magnesium acetate and [γ-^33P]-ATP (activity and concentration were determined as required). The reaction was started by adding the Mg/ATP mixture and terminated by adding 0.5% phosphoric acid after 40 min of incubation at room temperature. 10 μL of the reaction mixture was then added dropwise on a P30 filter pad and washed three times with 0.425% phosphoric acid and once with methanol within 4 minutes, dried and analyzed using a scintillation counter.

[2] = tested on: rat adjuvant-induced arthritis model; assay: Adjuvant-induced arthritis (AIA) in rats, in-vivo pharmacodynamic study; parameters: species or system Lewis rats; details: for Inhibition on area under the clinical score curve, AUC (%): oral, 2 times daily, female Lewis rats; for Mean clinical arthritis score: 10 mg/kg group
Experimental: The compounds disclosed herein were tested for their efficacy on arthritis using a rat adjuvant-induced arthritis model. Female, 160- and 180-gram Lewis rats were anesthetized with isoflurane and injected subcutaneously with 0.1 mL of Mycobacterium tuberculosis suspension in the left hind paw. The animals were grouped and administered with the compounds 13 days after modeling. The test compound 1-13 was dissolved in a mixed vehicle of [5% DMSO, 95% (12% SBE-β-CD), 0.5% MC]. The female Lewis rats were orally administered 2 times daily (8 animals in each group).

[3] = target: JAK1(h) (Homo sapiens (Human), UniProt P23458); assay: In vitro activity assay of JAK1 kinase (radiometric [γ-33P]-ATP); type: biochemical; details: recombinant human JAK1
Experimental: as §1, §2
as §3, with “JAK1(h)” for “JAK3(h)”, “20” for “8”, “Tris/HCl” for “MOPS”, “7.5,” for “7.0,”, “MGEEPLYWSFPAKKK,” for “GGEEEEYFELVKKKK,”

[4] = tested on: Caco-2 cells
Experimental: The transport buffer solution was HBSS (Hanks' balanced salt solution) and 10 mM HEPES [N-(2-hydroxyethyl)piperazine-N′-(2-ethanesulfonic acid)], pH 7.40±0.05; Caco-2 cells were purchased from ATCC.
Caco-2 cells were seeded at 1×10^5 cells/cm^2 in polyethylene terephthalate (PET) 96-well BD insert plates, and the medium was refreshed every 4-5 days until day 21-28 to form a confluent monolayer. Test compounds were tested in a two-way format at 2 μM in duplicate. Digoxin was added at 10 μM in the two-way format, and nadolol and metoprolol were added at 2 μM in the two-way format. Final DMSO concentration was adjusted to less than 1%. The plates were incubated in a CO2 incubator at 37±1° C. for 2 h and at 5% CO2 and saturated humidity without shaking. All samples were mixed with acetonitrile containing an internal standard, centrifuged at 4000 rpm for 10 min. 100 microliters of supernatant was diluted with 100 microliters of distilled water for LC/MS/MS analysis. By LC/MS/MS analysis, the concentrations of the test compounds and the reference compound in the initial test compound solution, the test compound solution and the test article solution using the peak area ratio of the analyte to the internal standard. After the transport test, the integrity of the Caco-2 cell monolayer was determined by fluorescein yellow exclusion reaction, and the apparent permeability coefficient and efflux ratio were calculated.

[5] = target: JAK2(h) (Homo sapiens (Human), UniProt O60674); assay: In vitro activity assay of JAK2 kinase (radiometric [γ-33P]-ATP); type: biochemical; details: recombinant human JAK2
Experimental: as §1, §2
as §3, with “JAK2(h)” for “JAK3(h)”, “100” for “500”, “[…],” for “GGEEEEYFELVKKKK,”

[6] = Pharmacokinetic (PK) study in mice; type: in vivo, mice (C57BL/6); details: male C57BL/6 mice
Experimental: Clear solutions obtained by dissolving the test compounds were administered to male mice (C57BL/6) or rats (SD) by tail vein injection and oral gavage (overnight fasting, 7-8 weeks old). After the administration of the test compounds, plasma was separated from blood collected from the mandibular vein and centrifugation at 0.117, 0.333, 1, 2, 4, 7 and 24 h for the intravenous injection group (1 mg/kg), and at 0.25, 0.5, 1, 2, 4, 8 and 24 h for the oral gavage group (3 mg/kg). The plasma concentration was measured by LC-MS/MS method, and the relevant pharmacokinetic parameters were calculated by WinNonlin™ Version 6.3 pharmacokinetic software using non-compartmental model linear logarithmic trapezoid method.

[7] = target: TYK2(h) (Homo sapiens (Human), UniProt P29597); assay: In vitro activity assay of TYK2 kinase (radiometric [γ-33P]-ATP); type: biochemical; details: recombinant human TYK2
Experimental: as §1, §2
as §3, with “TYK2(h)” for “JAK3(h)”, “250” for “500”, “GGMEDIYFEFMGGKKK,” for “GGEEEEYFELVKKKK,”

[8] = i.v. 1 mg/kg and oral gavage 3 mg/kg groups, route not given

JAK2(h), sequence (O60674 whole entry): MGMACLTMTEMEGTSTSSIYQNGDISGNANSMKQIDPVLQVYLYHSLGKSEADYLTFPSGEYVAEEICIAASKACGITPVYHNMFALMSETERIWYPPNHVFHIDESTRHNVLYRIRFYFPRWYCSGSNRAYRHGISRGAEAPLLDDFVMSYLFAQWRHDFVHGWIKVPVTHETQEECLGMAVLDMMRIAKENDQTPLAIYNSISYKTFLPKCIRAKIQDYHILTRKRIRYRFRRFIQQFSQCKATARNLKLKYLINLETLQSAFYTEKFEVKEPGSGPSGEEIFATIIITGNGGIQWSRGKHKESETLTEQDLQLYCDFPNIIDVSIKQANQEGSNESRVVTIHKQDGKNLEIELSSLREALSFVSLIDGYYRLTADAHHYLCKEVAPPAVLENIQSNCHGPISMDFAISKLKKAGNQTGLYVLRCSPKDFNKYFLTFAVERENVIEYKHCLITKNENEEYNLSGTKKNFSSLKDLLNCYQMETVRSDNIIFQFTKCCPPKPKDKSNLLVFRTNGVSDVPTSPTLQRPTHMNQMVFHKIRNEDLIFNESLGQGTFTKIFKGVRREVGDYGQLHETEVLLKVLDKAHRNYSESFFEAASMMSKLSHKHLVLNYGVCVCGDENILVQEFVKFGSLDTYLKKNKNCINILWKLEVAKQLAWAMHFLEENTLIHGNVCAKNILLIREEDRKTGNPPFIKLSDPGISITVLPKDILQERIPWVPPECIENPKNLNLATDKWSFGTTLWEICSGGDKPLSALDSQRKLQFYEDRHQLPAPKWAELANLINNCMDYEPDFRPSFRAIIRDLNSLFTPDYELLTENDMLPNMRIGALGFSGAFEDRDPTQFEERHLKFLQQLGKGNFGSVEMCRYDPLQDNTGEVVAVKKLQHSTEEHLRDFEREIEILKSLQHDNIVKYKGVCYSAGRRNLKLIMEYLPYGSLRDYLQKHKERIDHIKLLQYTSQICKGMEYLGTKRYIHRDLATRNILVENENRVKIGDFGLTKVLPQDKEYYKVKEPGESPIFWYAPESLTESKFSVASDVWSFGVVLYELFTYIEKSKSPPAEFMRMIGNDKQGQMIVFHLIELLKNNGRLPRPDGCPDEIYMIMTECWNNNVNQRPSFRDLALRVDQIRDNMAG
JAK3(h), sequence (P52333 whole entry): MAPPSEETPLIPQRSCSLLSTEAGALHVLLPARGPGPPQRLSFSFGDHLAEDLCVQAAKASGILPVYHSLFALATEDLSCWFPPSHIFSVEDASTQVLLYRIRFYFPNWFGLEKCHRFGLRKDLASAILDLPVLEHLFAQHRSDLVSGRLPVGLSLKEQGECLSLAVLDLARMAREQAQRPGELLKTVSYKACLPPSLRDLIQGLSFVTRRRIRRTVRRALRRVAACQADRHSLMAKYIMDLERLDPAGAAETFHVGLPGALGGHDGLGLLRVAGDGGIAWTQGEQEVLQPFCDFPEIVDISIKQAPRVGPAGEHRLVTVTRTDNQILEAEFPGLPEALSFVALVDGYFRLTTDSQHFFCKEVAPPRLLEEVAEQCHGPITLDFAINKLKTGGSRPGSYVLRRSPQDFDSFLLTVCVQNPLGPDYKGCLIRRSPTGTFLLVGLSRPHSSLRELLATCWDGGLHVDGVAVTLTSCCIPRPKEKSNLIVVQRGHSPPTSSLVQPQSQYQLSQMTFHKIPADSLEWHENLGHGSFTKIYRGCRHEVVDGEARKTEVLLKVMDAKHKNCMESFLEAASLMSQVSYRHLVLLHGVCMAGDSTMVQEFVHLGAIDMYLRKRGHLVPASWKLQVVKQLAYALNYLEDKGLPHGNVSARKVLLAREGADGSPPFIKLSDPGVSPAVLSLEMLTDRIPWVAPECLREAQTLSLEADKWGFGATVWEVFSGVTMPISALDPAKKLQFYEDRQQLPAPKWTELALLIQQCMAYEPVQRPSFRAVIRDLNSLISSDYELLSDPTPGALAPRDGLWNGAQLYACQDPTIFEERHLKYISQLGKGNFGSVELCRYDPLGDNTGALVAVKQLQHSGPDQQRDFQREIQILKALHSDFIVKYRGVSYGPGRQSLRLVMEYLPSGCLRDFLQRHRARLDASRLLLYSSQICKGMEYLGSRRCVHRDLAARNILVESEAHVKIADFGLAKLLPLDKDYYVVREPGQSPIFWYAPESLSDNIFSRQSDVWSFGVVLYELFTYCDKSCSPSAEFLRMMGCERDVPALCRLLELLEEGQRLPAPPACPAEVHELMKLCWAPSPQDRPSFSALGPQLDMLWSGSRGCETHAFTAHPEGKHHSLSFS
JAK1(h), sequence (P23458 whole entry): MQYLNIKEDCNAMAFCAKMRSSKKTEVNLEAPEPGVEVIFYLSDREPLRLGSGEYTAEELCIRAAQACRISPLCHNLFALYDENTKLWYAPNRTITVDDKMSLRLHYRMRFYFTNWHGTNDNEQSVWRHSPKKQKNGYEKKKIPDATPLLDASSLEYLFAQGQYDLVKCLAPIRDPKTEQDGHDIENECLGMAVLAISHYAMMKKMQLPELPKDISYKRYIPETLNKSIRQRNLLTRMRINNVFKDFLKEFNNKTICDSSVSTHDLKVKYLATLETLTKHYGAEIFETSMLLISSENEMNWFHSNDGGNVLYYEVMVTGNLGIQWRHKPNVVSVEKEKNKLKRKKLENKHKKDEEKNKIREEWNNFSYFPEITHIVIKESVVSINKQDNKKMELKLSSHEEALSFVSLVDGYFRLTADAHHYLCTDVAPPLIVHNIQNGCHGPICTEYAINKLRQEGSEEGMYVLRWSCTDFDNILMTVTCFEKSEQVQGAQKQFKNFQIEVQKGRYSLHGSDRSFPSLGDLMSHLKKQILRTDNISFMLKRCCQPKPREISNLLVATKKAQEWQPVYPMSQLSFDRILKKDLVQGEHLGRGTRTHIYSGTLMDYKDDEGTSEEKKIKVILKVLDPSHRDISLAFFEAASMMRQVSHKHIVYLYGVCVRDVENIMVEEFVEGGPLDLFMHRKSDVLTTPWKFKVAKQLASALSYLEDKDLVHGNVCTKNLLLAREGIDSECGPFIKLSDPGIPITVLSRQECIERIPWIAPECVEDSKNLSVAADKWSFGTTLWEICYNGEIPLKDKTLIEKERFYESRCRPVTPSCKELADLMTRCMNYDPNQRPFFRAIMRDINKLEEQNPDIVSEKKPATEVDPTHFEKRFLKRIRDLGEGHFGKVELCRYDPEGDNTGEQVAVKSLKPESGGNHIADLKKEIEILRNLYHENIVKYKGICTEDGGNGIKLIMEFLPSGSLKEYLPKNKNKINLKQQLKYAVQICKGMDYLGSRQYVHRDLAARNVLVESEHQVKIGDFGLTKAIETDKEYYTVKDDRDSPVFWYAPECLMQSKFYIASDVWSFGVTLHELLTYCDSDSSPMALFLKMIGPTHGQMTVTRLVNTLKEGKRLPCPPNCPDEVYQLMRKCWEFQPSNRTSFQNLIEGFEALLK
TYK2(h), sequence (P29597 whole entry): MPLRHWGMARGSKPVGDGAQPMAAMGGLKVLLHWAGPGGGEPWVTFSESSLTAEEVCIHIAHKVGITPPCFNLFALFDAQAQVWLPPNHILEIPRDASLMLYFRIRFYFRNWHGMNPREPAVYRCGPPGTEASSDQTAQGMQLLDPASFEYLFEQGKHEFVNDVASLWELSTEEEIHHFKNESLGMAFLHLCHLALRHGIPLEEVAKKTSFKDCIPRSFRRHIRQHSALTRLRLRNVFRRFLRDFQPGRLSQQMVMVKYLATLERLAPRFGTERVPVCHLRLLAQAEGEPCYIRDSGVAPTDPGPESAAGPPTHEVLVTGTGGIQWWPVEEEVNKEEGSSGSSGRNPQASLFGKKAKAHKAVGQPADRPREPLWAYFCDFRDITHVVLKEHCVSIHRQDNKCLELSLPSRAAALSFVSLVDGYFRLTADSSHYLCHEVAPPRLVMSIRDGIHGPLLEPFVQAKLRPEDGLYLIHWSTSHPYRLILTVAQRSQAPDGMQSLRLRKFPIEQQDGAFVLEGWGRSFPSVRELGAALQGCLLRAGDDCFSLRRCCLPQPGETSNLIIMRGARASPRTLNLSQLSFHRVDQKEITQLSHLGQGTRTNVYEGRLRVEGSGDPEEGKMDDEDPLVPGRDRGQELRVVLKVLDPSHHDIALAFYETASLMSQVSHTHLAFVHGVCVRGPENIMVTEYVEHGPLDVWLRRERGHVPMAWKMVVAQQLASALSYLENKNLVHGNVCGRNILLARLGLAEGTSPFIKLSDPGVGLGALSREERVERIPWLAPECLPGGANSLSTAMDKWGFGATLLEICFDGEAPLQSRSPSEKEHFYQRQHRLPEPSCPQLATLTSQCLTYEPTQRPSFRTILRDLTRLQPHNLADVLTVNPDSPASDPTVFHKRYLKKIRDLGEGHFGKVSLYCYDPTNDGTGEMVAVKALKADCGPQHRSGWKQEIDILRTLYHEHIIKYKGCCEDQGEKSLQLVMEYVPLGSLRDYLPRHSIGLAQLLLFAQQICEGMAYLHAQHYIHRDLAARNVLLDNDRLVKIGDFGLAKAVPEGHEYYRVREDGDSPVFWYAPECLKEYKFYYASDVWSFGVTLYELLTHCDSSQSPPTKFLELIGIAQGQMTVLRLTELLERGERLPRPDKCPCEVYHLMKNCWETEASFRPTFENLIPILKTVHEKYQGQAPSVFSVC

SMILES | IC50 [1] [nM] | Effect on the weight loss trend of animals caused by disease attack ([2]; 3 mg/kg and 10 mg/kg, vs solvent control group, significant difference since day 20) | Therapeutic effect (inhibition rate versus vehicle control) ([2]; 3 mg/kg and 10 mg/kg, P<0.0001 versus vehicle control) | Inhibition on area under the clinical score curve, AUC (%) ([2]; 3 mg/kg) | Mean clinical arthritis score ([2]; day 13 (start of dosing)) [points] | Mean clinical arthritis score ([2]; day 27 (study endpoint)) [points] | Inhibition on area under the clinical score curve, AUC (%) ([2]; 10 mg/kg) | Increase in clinical arthritis score ([2]; dose-dependent, 3 and 10 mg/kg) | Increase in paw volume ([2]; dose-dependent, 3 and 10 mg/kg) | IC50 [3] [nM] | Efflux ratio ([4]; Caco-2) | Mean apparent permeability coefficient Mean Papp (10^−6 cm/s) A to B ([4]; Caco-2, pH 7.4) | Mean apparent permeability coefficient Mean Papp (10^−6 cm/s) B to A ([4]; Caco-2, pH 7.4) | IC50 [5] [nM] | AUC0-inf [6, 8] [µM·h] | Cmax [6, 8] [µM] | T1/2 [6, 8] [h] | Bioavailability (%) ([6]; oral gavage 3 mg/kg vs i.v. 1 mg/kg) | IC50 [7] [nM]
CN(c1ncnc2[nH]ccc12)[C@@H]1CCc2cc(C#N)nn2C1 [Compound 1-13] | 118 | significant relieving effect | significant therapeutic effect | 49.6 | 6 | 1.4 | 60.5 | inhibited | inhibited | 1 | 1.09 | 28.58 10^−6 cm/s | 31.18 10^−6 cm/s | 8 | 12.765 | 6 | 1.89 | 88.4 | 15
CC(C)(C)NCC(O)COc1cccc2c1CC(O)C(O)C2 (centres unmarked) [Nadolol, reference compound] | – | – | – | – | – | – | – | – | – | – | – | 0.16 10^−6 cm/s | – | – | – | – | – | – | –
